# Assay results published in ChEMBL document CHEMBL2417471, “Synthesis and biological activity of (24E)- and (24Z)-26-hydroxydesmosterol” (Bioorg Med Chem, 2013).
# Active and inactive are the calls of the source. The calls are words filed in the database; no cut-off is given here.
# Experiments:
# Assay type in all cases: cell-based
# [1] = molecular target: T1, Oxysterols receptor LXR-alpha (Homo sapiens) (UniProt Q13133); test: Agonist activity at LXRalpha (unknown origin) transfected in mouse SN4741 cells at 10 uM after 24 hrs by luciferase reporter gene assay
# T1 sequence (whole entry): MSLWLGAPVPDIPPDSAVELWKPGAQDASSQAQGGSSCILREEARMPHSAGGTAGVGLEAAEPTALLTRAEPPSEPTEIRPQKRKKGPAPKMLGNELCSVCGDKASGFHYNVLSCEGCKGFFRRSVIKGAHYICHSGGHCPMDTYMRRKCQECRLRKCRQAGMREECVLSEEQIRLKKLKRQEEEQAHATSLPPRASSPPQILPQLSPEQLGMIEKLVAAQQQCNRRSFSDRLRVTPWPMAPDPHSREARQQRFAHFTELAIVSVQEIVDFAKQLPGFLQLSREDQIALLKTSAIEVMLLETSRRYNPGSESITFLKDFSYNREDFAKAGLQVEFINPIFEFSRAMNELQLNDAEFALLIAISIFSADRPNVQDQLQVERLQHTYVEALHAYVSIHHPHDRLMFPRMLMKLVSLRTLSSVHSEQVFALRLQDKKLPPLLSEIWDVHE
# SN4741 = test: Agonist activity at LXR in mouse SN4741 cells assessed as upregulation of ABCA1 protein expression at 10 uM by immunoblot analysis
# [2] = molecular target: T2, Oxysterols receptor LXR-beta (Homo sapiens) (UniProt P55055); test: Agonist activity at LXRbeta (unknown origin) transfected in mouse SN4741 cells at 10 uM after 24 hrs by luciferase reporter gene assay
# T2 sequence (whole entry): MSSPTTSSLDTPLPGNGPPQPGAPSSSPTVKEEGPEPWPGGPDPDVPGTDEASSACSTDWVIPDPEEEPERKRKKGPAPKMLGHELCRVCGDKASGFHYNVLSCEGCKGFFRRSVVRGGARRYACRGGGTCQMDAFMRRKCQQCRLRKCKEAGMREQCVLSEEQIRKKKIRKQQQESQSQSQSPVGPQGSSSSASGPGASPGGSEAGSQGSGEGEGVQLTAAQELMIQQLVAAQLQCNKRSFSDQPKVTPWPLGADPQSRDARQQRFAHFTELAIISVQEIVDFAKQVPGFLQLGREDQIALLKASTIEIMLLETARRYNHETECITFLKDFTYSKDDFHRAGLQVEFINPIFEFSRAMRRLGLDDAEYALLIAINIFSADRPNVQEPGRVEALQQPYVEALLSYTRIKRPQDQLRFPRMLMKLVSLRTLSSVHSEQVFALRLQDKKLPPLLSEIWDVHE
Activity [1],Activity [2],SMILES,Activity (SN4741)
inactive,inactive,C/C(=C\CC[C@@H](C)[C@H]1CC[C@H]2[C@@H]3CC=C4C[C@@H](O)CC[C@]4(C)[C@H]3CC[C@]12C)CO,inactive
Active,Active,CC(C)=CCC[C@@H](C)[C@H]1CC[C@H]2[C@@H]3CC=C4C[C@@H](O)CC[C@]4(C)[C@H]3CC[C@]12C,Active
inactive,inactive,C/C(=C/CC[C@@H](C)[C@H]1CC[C@H]2[C@@H]3CC=C4C[C@@H](O)CC[C@]4(C)[C@H]3CC[C@]12C)CO,inactive
